Experimental findings from the Kinase Knowledgebase extract (Sharma et al. 2016) are described below.

Each structure is given as a SMILES string.

The target of the assay is MAPK14 (human) (UniProt Q16539). In words: Inhibition of MAPK14 Kinase Activity.
Sequence of MAPK14 (human) (Q16539 whole entry, looked up): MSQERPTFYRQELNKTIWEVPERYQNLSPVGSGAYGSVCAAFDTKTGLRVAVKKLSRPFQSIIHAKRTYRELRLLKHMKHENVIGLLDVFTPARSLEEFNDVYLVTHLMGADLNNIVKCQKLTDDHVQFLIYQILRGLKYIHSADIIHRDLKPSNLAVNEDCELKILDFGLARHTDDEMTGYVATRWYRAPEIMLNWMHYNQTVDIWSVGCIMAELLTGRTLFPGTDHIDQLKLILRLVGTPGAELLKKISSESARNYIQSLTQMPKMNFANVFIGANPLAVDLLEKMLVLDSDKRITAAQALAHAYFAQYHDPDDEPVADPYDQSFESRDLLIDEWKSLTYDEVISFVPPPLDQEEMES

With `CSc1nc(-c2ccc(F)cc2C)c2ccc(=O)n(CC3CC3)c2n1`, the IC50 was less than 10 µM.

For the compound `CCC(CC)n1c(=O)ccc2c(-c3ccccc3Cl)nc(N[C@H](C)CO)nc21`, the IC50 is less than 10 µM. As for `Cc1cc(F)ccc1-c1nc(NC(CO)CO)nc2c1ccc(=O)n2-c1ccccc1F`, the IC50 was less than 10 µM. `Cc1cc(F)ccc1-c1nc(NC[C@H](C)O)nc2c1ccc(=O)n2-c1c(F)cccc1F` gave an IC50 of less than 10 µM. Consider `Cc1cc(F)ccc1-c1nc(NCC(=O)N(C)C)nc2c1ccc(=O)n2-c1c(F)cccc1F`, for which the 50% inhibitory concentration (IC50) is less than 10 µM. For `O=c1ccc2c(-c3ccccc3F)nc(NC(CO)CO)nc2n1CC1CC1` the value was less than 10 µM.

With `CS(=O)(=O)Nc1nc(-c2ccccc2)c2ccc(=O)n(-c3ccccc3)c2n1`, the half-maximal inhibitory concentration (IC50) is less than 10 µM. Then `CCC(C)n1c(=O)ccc2c(-c3ccc(F)cc3C)nc(NC(CO)CO)nc21` (stereo not drawn), with less than 10 µM; and `Cc1cc(F)ccc1-c1nc(NCC(C)(C)O)nc2c1ccc(=O)n2-c1ccccc1C`, with less than 10 µM; and `O=c1ccc2c(-c3ccccc3Cl)nc(NCCO)nc2n1-c1ccccc1Cl`, with less than 10 µM.

The compound `Cc1cc(F)ccc1-c1nc(Nc2nc[nH]n2)nc2c1ccc(=O)n2-c1c(F)cccc1F` had an IC50 of less than 10 µM.

`Cc1cc(F)ccc1-c1nc(NC(=O)C2CC2)nc2c1ccc(=O)n2-c1c(F)cccc1F`: the IC50 was less than 10 µM. Then `Nc1nc(-c2ccccc2F)c2ccc(=O)n(-c3c(F)cccc3F)c2n1`, with less than 10 µM; and `Cc1cc(F)ccc1-c1nc(NC2CCOCC2)nc2c1ccc(=O)n2-c1ccccc1C`, with less than 10 µM; and `CSc1nc(-c2ccc(F)cc2C)c2c(n1)N(c1c(F)cccc1F)C(=O)CC2`, with less than 10 µM.

In turn, `CSc1nc(-c2ccc(F)cc2C)c2ccc(=O)n(C3CCCCC3)c2n1` showed an IC50 of less than 10 µM. Compound `Cc1cc(F)ccc1-c1nc(NCCO)nc2c1ccc(=O)n2C(C)C` returned an IC50 of less than 10 µM. In the case of `Cc1cc(F)ccc1-c1nc(N[C@@H]2CS(=O)(=O)C[C@H]2O)nc2c1ccc(=O)n2-c1c(F)cccc1F`, the IC50 was less than 10 µM.

On to `Cc1cc(F)ccc1-c1nc(N[C@H]2CC[C@H](O)CC2)nc2c1ccc(=O)n2-c1ccccc1C`, for which the 50% inhibitory concentration (IC50) is less than 10 µM.

In turn, `CSc1nc(-c2ccc(F)cc2C)c2ccc(=O)n(-c3c(F)cccc3F)c2n1` came in with an IC50 of less than 10 µM.

For the compound `Cc1cc(F)ccc1-c1nc(N(C)CCO)nc2c1ccc(=O)n2-c1c(F)cccc1F`, the IC50 is less than 10 µM. The compound `Cc1cc(F)ccc1-c1nc(NCCNC(=O)NC2CCCCC2)nc2c1ccc(=O)n2-c1c(F)cccc1F` registered an IC50 of less than 10 µM. `Cc1cc(F)ccc1-c1nc(NC(C)(C)CO)nc2c1ccc(=O)n2-c1ccccc1C` yielded an IC50 of less than 10 µM. In the case of `Cc1cc(F)ccc1-c1nc(NCCN)nc2c1ccc(=O)n2-c1c(F)cccc1F`, the IC50 was less than 10 µM.

Take `COC(=O)CNc1nc(-c2ccc(F)cc2C)c2ccc(=O)n(-c3c(F)cccc3F)c2n1`: the IC50 is less than 10 µM. For `Cc1cc(F)ccc1-c1nc(OCCNS(C)(=O)=O)nc2c1ccc(=O)n2-c1c(F)cccc1F` the value was less than 10 µM. `Cc1cc(F)ccc1-c1nc(NCC(F)(F)F)nc2c1ccc(=O)n2-c1ccccc1F` came in with an IC50 of less than 10 µM. In turn, `COc1nc(-c2ccccc2Cl)c2ccc(=O)n(-c3ccccc3Cl)c2n1` had an IC50 of less than 10 µM. Then `Cc1cc(F)ccc1-c1nc(NCc2nnn[nH]2)nc2c1ccc(=O)n2-c1c(F)cccc1F`, with less than 10 µM; and `Cc1cc(F)ccc1-c1nc(NC(C)(C)CO)nc2c1ccc(=O)n2-c1ccccc1F`, with less than 10 µM. `Cc1cc(F)ccc1-c1nc(NCCO)nc2c1ccc(=O)n2-c1c(C)cccc1C`: the IC50 is less than 10 µM. `Cc1cc(F)ccc1-c1nc(NCCCl)nc2c1ccc(=O)n2-c1c(F)cccc1F` returned an IC50 of less than 10 µM. Take `Cc1cc(F)ccc1-c1nc(NC(C)(CO)CO)nc2c1ccc(=O)n2-c1ccccc1F`: the IC50 is less than 10 µM. The compound `Cc1cc(F)ccc1-c1nc(OC(CO)CO)nc2c1ccc(=O)n2-c1c(F)cccc1F` yielded an IC50 of less than 10 µM. Then `CCN(CC)CCNc1nc(-c2ccccc2)c2ccc(=O)n(-c3ccccc3)c2n1`, with less than 10 µM; and `COCCNC(=O)CNc1nc(-c2ccc(F)cc2C)c2ccc(=O)n(-c3c(F)cccc3F)c2n1`, with less than 10 µM. Consider `CSc1nc(-c2ccccc2F)c2ccc(=O)n(C)c2n1`, for which the IC50 is less than 10 µM. The compound `Cc1cc(F)ccc1-c1nc(NC[C@@H](C)O)nc2c1ccc(=O)n2-c1ccccc1F` came in with an IC50 of less than 10 µM. On to `Cc1cc(F)ccc1-c1nc(OCCCS(C)(=O)=O)nc2c1ccc(=O)n2-c1c(F)cccc1F`, for which the IC50 was less than 10 µM. `Cc1cc(F)ccc1-c1nc(NC(C)(C)CO)nc2c1ccc(=O)n2-c1c(F)cccc1F` had an IC50 of less than 10 µM. Compound `Cc1cc(F)ccc1-c1nc(NCCCN2CCCC2=O)nc2c1ccc(=O)n2-c1c(F)cccc1F` showed an IC50 of less than 10 µM.

`Cc1cc(F)ccc1-c1nc(NCC(C)(C)O)nc2c1ccc(=O)n2-c1c(F)cccc1F` displayed an IC50 of less than 10 µM. In turn, `Cc1cc(F)ccc1-c1nc(NCC(C)(C)C)nc2c1ccc(=O)n2-c1ccccc1F` gave an IC50 of less than 10 µM. `CCOC(=O)CNc1nc(-c2ccccc2Cl)c2ccc(=O)n(-c3ccccc3Cl)c2n1` had an IC50 of less than 10 µM. Compound `Cc1cc(F)ccc1-c1nc(NCCNS(C)(=O)=O)nc2c1ccc(=O)n2-c1c(F)cccc1F` displayed an IC50 of less than 10 µM.

For the compound `Cc1cc(F)ccc1-c1nc(NCCNC(=O)CN)nc2c1ccc(=O)n2-c1c(F)cccc1F`, the IC50 was less than 10 µM. Then `CCNc1nc(-c2ccc(F)cc2C)c2ccc(=O)n(-c3c(F)cccc3F)c2n1`, with less than 10 µM; and `CSc1nc(-c2ccccc2F)c2ccc(=O)[nH]c2n1`, with less than 10 µM. As for `CSc1nc(-c2ccccc2F)c2ccc(=O)n(-c3ccccc3F)c2n1`, the IC50 is less than 10 µM. In turn, `COc1nc(-c2ccc(F)cc2C)c2ccc(=O)n(-c3c(F)cccc3F)c2n1` had an IC50 of less than 10 µM. `Cc1cc(F)ccc1-c1nc(NC(CO)CO)nc2c1ccc(=O)n2C1CC1` came in with an IC50 of less than 10 µM. Consider `Cc1cc(F)ccc1-c1nc(NCCNC(=O)CNC(=O)OC(C)(C)C)nc2c1ccc(=O)n2-c1c(F)cccc1F`, for which the IC50 is less than 10 µM.

`Cc1cc(CNc2nc(-c3ccc(F)cc3C)c3ccc(=O)n(-c4c(F)cccc4F)c3n2)on1`: the IC50 is less than 10 µM. For `CC(C)n1c(=O)ccc2c(-c3ccccc3F)nc(NS(C)(=O)=O)nc21` the value was less than 10 µM.

As to `Cc1cc(F)ccc1-c1nc(NCC(=O)N2CCCC2)nc2c1ccc(=O)n2-c1c(F)cccc1F`, the IC50 is less than 10 µM.

In turn, `CSc1nc(-c2ccccc2F)c2ccc(=O)n(-c3c(F)cccc3F)c2n1` displayed an IC50 of less than 10 µM. Turning to `Cc1cc(F)ccc1-c1nc(N2CCOCC2)nc2c1ccc(=O)n2-c1ccccc1C`, the half-maximal inhibitory concentration (IC50) is less than 10 µM. For `Cc1cc(F)ccc1-c1nc(NC(C)(CO)CO)nc2c1ccc(=O)n2-c1ccccc1C` the value was less than 10 µM; for `Cc1cc(F)ccc1-c1nc(NC2CCN(C)CC2)nc2c1ccc(=O)n2-c1c(F)cccc1F`, less than 10 µM; for `O=c1ccc2c(-c3ccccc3Cl)nc(NC3CCNCC3)nc2n1-c1ccccc1Cl`, less than 10 µM. For `Cc1cc(F)ccc1-c1nc(OCCNC(=O)OC(C)(C)C)nc2c1ccc(=O)n2-c1c(F)cccc1F` the value was less than 10 µM; for `CSc1nc(-c2ccccc2Cl)c2ccc(=O)n(-c3ccccc3Cl)c2n1`, less than 10 µM. `Cc1cc(F)ccc1-c1nc(Nc2ccnc(=O)[nH]2)nc2c1ccc(=O)n2-c1c(F)cccc1F` returned an IC50 of less than 10 µM.
